Columns and labels:
Experiment in all cases: relative viability (nuclei count vs DMSO), 5 days (fraction); higher = more cells survive
[1] = compound: CO[C@@H]1[C@H](N(C)C(=O)c2ccccc2)C[C@H]2O[C@]1(C)n1c3ccccc3c3c4c(c5c6ccccc6n2c5c31)C(=O)NC4 [Midostaurin] + O=C(c1cc(Cc2n[nH]c(=O)c3ccccc23)ccc1F)N1CCN(C(=O)C2CC2)CC1 [Olaparib] (partner 8 µM)
In short: (§1)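 Lung cancer cell lines in 1536-well plates got either a single drug or a fixed anchor-drug dose together with five library-drug doses (not always all listed) in √10 steps, by pin tool, on the day after seeding. Nuclei were counted after 5 days, and relative viability is the treated-to-vehicle ratio of nuclei counts. Values are medians of duplicate plates.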

[2] = compound: COc1cc(-c2nn([C@H]3CC[C@H](N4CCN(C(C)=O)CC4)CC3)c3ncnc(N)c23)ccc1NC(=O)c1cc2ccccc2n1C + CC1(C)CCC(c2ccc(Cl)cc2)=C(CN2CCN(c3ccc(C(=O)NS(=O)(=O)c4ccc(N[C@H](CCN5CCOCC5)CSc5ccccc5)c(S(=O)(=O)C(F)(F)F)c4)cc3)CC2)C1 [Navitoclax] (partner 0.5 µM)
In short: as §1

[3] = compound: COc1cc(-c2nn([C@H]3CC[C@H](N4CCN(C(C)=O)CC4)CC3)c3ncnc(N)c23)ccc1NC(=O)c1cc2ccccc2n1C + C[C@]1(O)C[C@@H](c2nc(-c3ccc4ccc(-c5ccccc5)nc4c3)c3c(N)nccn32)C1 [Linsitinib] (partner 1 µM)
In short: as §1

[4] = compound: CO[C@@H]1[C@H](N(C)C(=O)c2ccccc2)C[C@H]2O[C@]1(C)n1c3ccccc3c3c4c(c5c6ccccc6n2c5c31)C(=O)NC4 [Midostaurin] + Cc1cc(Nc2cc(N3CCN(C)CC3)nc(Sc3ccc(NC(=O)C4CC4)cc3)n2)n[nH]1 [Tozasertib] (partner 0.1 µM)
In short: as §1

[5] = compound: COc1cc(-c2nn([C@H]3CC[C@H](N4CCN(C(C)=O)CC4)CC3)c3ncnc(N)c23)ccc1NC(=O)c1cc2ccccc2n1C + CC(=O)c1c(C)c2cnc(Nc3ccc(N4CCNCC4)cn3)nc2n(C2CCCC2)c1=O [Palbociclib] (partner 0.5 µM)
In short: as §1

Cell Line	relative viability ([1]; first compound 0.01 µM)	relative viability ([1]; first compound 0.03162 µM)	relative viability ([1]; first compound 0.1 µM)	relative viability ([1]; first compound 0.3162 µM)	relative viability ([2]; first compound 0.0128 µM)	relative viability ([2]; first compound 0.04048 µM)	relative viability ([2]; first compound 0.128 µM)	relative viability ([2]; first compound 1.28 µM)	relative viability ([3]; first compound 0.0128 µM)	relative viability ([3]; first compound 0.04048 µM)	relative viability ([3]; first compound 0.128 µM)	relative viability ([3]; first compound 1.28 µM)	relative viability ([4]; first compound 0.01 µM)	relative viability ([4]; first compound 0.03162 µM)	relative viability ([4]; first compound 0.1 µM)	relative viability ([4]; first compound 0.3162 µM)	relative viability ([5]; first compound 0.0128 µM)	relative viability ([5]; first compound 0.04048 µM)	relative viability ([5]; first compound 0.128 µM)	relative viability ([5]; first compound 1.28 µM)
EBC-1	0.719	0.589	0.673	0.679	0.422	0.501	0.422	0.339	0.77	0.959	0.898	0.896	–	–	–	–	–	–	–	–
SW 1573	0.503	0.547	0.403	0.249	0.817	1.02	1.02	0.716	0.706	0.72	0.63	0.598	0.177	0.187	0.173	0.157	0.393	0.388	0.172	0.347
A-427	0.711	0.654	0.713	0.725	1.06	0.763	1.04	0.795	1.16	1.08	1.07	0.963	0.232	0.215	0.193	0.172	0.544	0.554	0.551	0.521
NCI-H2347	0.602	0.54	0.424	0.519	0.864	0.794	0.769	0.858	0.949	0.856	0.961	1.09	0.494	0.553	0.616	0.506	0.461	0.43	0.392	0.416
NCI-H1355	0.777	0.78	0.77	0.68	1.02	0.923	0.928	0.967	0.997	0.867	0.918	0.818	0.544	0.632	0.597	0.475	0.448	0.402	0.416	0.415
NCI-H358	0.511	0.48	0.531	0.575	–	–	–	–	0.664	0.73	0.681	0.462	0.103	0.101	0.0978	0.112	0.145	0.137	0.126	0.115
PC-3 [JPC-3]	1.08	0.946	1.05	1.07	0.904	0.803	0.776	0.86	1.02	0.957	0.966	0.997	0.886	0.809	0.865	0.867	0.588	0.621	0.529	0.676
NCI-H2228	0.618	0.588	0.744	0.556	0.825	1.17	0.91	0.745	0.54	0.883	0.649	0.643	0.254	0.284	0.265	0.216	0.761	0.672	0.772	0.522
